Assay results published in a compilation of properties of binary mixtures (doi:10.1021/je901058s).

Assay: xn = mol fraction of the nth substance listed
Conditions: 101 kPa

CCCCCCCCn1cc[n+](C)c1.O=[N+]([O-])[O-] + CCCCO
viscosity [mPa·s]
Conditions | 283.15 K | 288.15 K | 293.15 K | 298.15 K | 303.15 K | 308.15 K | 313.15 K | 318.15 K | 323.15 K | 328.15 K
x2 = 0.168 | – | 530 | 380 | 277 | 207 | 158 | – | 97.4 | 73.2 | 48.9
x2 = 0.261 | 440 | 311 | 229 | 172 | 132 | 103 | 78.5 | 63.4 | 51.6 | 35.5
x2 = 0.358 | 241 | 179 | – | 105 | 80.6 | – | – | – | 35.7 | 25.5
x2 = 0.458 | 126 | 98.8 | 74.2 | – | – | 39.3 | 32.6 | 27.3 | – | –
x2 = 0.57 | 59.4 | 47.4 | – | – | 26.4 | 22.29 | 18.98 | 16.3 | – | 10.88
x2 = 0.676 | 29.9 | 24.7 | – | 17.43 | – | – | 11.15 | 9.75 | – | 6.84
x2 = 0.754 | 18.67 | 15.69 | 13.36 | 11.44 | 9.92 | 8.74 | 7.63 | 6.76 | 5.98 | 4.76
x2 = 0.848 | 10.45 | 9.03 | – | – | 5.92 | 5.15 | 4.56 | 4.03 | – | 2.93

CCCCCCCCn1cc[n+](C)c1.O=[N+]([O-])[O-] + CCCO
viscosity [mPa·s]
Conditions | 283.15 K | 288.15 K | 293.15 K | 298.15 K | 303.15 K | 308.15 K | 313.15 K | 318.15 K | 323.15 K | 328.15 K
x2 = 0.107 | 1091 | 730 | 510 | 365 | 267 | 201 | 153 | 120 | 95.4 | –
x2 = 0.258 | 490 | – | 258 | 191 | – | 113 | 86.9 | – | 53.4 | 36.5
x2 = 0.364 | 218 | 164 | 127 | 99.7 | – | 63 | 51.1 | 42.1 | 35 | 25
x2 = 0.47 | 114 | 85.8 | – | 60 | 48.5 | 39.7 | – | 27.6 | 23.44 | 17.34
x2 = 0.556 | 65.4 | – | – | 34.4 | 28.6 | – | 20.38 | 17.44 | 15.08 | –
x2 = 0.671 | 28.8 | 23.8 | – | 16.84 | 14.41 | 12.45 | – | – | 8.41 | 6.55
x2 = 0.756 | 16.16 | 13.66 | 11.67 | 10.07 | 8.77 | 7.63 | 6.75 | 5.93 | 5.21 | 4.2
x2 = 0.866 | 7.84 | 6.8 | 5.85 | – | 4.48 | 3.94 | 3.52 | 3.14 | 2.82 | 2.31

CCCCCCCCn1cc[n+](C)c1.O=[N+]([O-])[O-] + CCO
viscosity [mPa·s]
Conditions | 283.15 K | 288.15 K | 293.15 K | 298.15 K | 303.15 K | 308.15 K | 313.15 K | 318.15 K | 323.15 K | 328.15 K
x2 = 0.128 | 970 | 660 | 460 | 333 | 246 | 185 | 143 | – | 81.4 | –
x2 = 0.266 | 380 | 266 | 198 | 150 | 116 | 89.1 | 68.9 | 55.9 | 45.9 | 32
x2 = 0.357 | 216 | – | 124 | 97 | 73.4 | 58.4 | 48.3 | – | 33.3 | –
x2 = 0.455 | 102 | 76.2 | – | 47.5 | 38.3 | 31.2 | 25.8 | – | 18.59 | 14.08
x2 = 0.554 | – | 38.6 | 31.5 | 26.1 | – | 18.4 | 15.71 | 13.53 | 11.78 | –
x2 = 0.662 | 24.8 | 20.62 | 17.19 | 14.52 | 12.44 | 10.83 | 9.55 | 8.69 | 7.83 | 6.2
x2 = 0.767 | 11.64 | 9.86 | – | – | – | 5.72 | – | 4.46 | 3.99 | 3.27
x2 = 0.868 | 5.09 | – | 3.97 | 3.49 | 3.13 | 2.8 | 2.53 | 2.3 | 2.1 | 1.77
